Measurements from ChEMBL document CHEMBL1909294, “Translating clinical findings into knowledge in drug safety evaluation--drug induced liver injury prediction system (DILIps)” (PLoS Comput Biol, 2011).

Key:
Hepatotoxicity [1] = tested on: Hepatotoxicity;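 on HepSE bilirubinemia: bilirubinemia hepatic side effect score drawn from the DILIps training data, a prediction system for drug-induced liver injury; call rule not given here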;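 on HepSE cholecystitis: Cholecystitis-related hepatic side effect score drawn from the DILIps (drug-induced liver injury prediction) training data set; call rule not given here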;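 on HepSE cholelithiasis: hepatic side effect score for cholelithiasis, drawn from the DILIps training data for predicting drug-induced liver injury; call rule not given here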;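 on HepSE cirrhosis: cirrhosis hepatic side effect score taken from the DILIps (drug-induced liver injury prediction) training set; call rule not given here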;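 on HepSE elevated liver function tests: hepatic side effect score for raised liver function tests, as recorded in the DILIps training set used for predicting drug-induced liver injury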; on HepSE hepatic failure: call rule not given here;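 on HepSE hepatomegaly: hepatic side effect score for hepatomegaly, taken from the training set of the DILIps drug-induced liver injury prediction system; call rule not given here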
Hepatotoxicity [2] = tested on: Hepatotoxicity; remark: listed apart in the source;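 on HepSE bilirubinemia: bilirubinemia hepatic side effect score drawn from the DILIps training data, a prediction system for drug-induced liver injury; call rule not given here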;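 on HepSE cholecystitis: Cholecystitis-related hepatic side effect score drawn from the DILIps (drug-induced liver injury prediction) training data set; call rule not given here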;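 on HepSE cholelithiasis: hepatic side effect score for cholelithiasis, drawn from the DILIps training data for predicting drug-induced liver injury; call rule not given here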;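 on HepSE cirrhosis: cirrhosis hepatic side effect score taken from the DILIps (drug-induced liver injury prediction) training set; call rule not given here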;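 on HepSE elevated liver function tests: hepatic side effect score for raised liver function tests, as recorded in the DILIps training set used for predicting drug-induced liver injury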; on HepSE hepatic failure: call rule not given here;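 on HepSE hepatomegaly: hepatic side effect score for hepatomegaly, taken from the training set of the DILIps drug-induced liver injury prediction system; call rule not given here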
Hepatotoxicity [3] = tested on: Hepatotoxicity; remark: listed apart in the source;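 on HepSE bilirubinemia: bilirubinemia hepatic side effect score drawn from the DILIps training data, a prediction system for drug-induced liver injury; call rule not given here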;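 on HepSE cholecystitis: Cholecystitis-related hepatic side effect score drawn from the DILIps (drug-induced liver injury prediction) training data set; call rule not given here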;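 on HepSE cholelithiasis: hepatic side effect score for cholelithiasis, drawn from the DILIps training data for predicting drug-induced liver injury; call rule not given here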;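 on HepSE cirrhosis: cirrhosis hepatic side effect score taken from the DILIps (drug-induced liver injury prediction) training set; call rule not given here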;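 on HepSE elevated liver function tests: hepatic side effect score for raised liver function tests, as recorded in the DILIps training set used for predicting drug-induced liver injury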; on HepSE hepatic failure: call rule not given here
Hepatotoxicity [4] = tested on: Hepatotoxicity; remark: listed apart in the source;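 on HepSE bilirubinemia: bilirubinemia hepatic side effect score drawn from the DILIps training data, a prediction system for drug-induced liver injury; call rule not given here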;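 on HepSE cholecystitis: Cholecystitis-related hepatic side effect score drawn from the DILIps (drug-induced liver injury prediction) training data set; call rule not given here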;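 on HepSE cholelithiasis: hepatic side effect score for cholelithiasis, drawn from the DILIps training data for predicting drug-induced liver injury; call rule not given here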;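 on HepSE cirrhosis: cirrhosis hepatic side effect score taken from the DILIps (drug-induced liver injury prediction) training set; call rule not given here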;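 on HepSE elevated liver function tests: hepatic side effect score for raised liver function tests, as recorded in the DILIps training set used for predicting drug-induced liver injury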; on HepSE hepatic failure: call rule not given here
Hepatotoxicity [5] = tested on: Hepatotoxicity; remark: listed apart in the source; on HepSE hepatic failure: call rule not given here
Hepatotoxicity [6] = tested on: Hepatotoxicity; remark: listed apart in the source; on HepSE hepatic failure: call rule not given here
Hepatotoxicity [7] = tested on: Hepatotoxicity; remark: listed apart in the source
Hepatotoxicity [8] = tested on: Hepatotoxicity; remark: listed apart in the source
Hepatotoxicity [9] = tested on: Hepatotoxicity; remark: listed apart in the source
Hepatotoxicity [10] = tested on: Hepatotoxicity; remark: listed apart in the source
Hepatotoxicity [11] = tested on: Hepatotoxicity; remark: listed apart in the source
Hepatotoxicity [12] = tested on: Hepatotoxicity; remark: listed apart in the source
Hepatotoxicity [13] = tested on: Hepatotoxicity; remark: listed apart in the source
Hepatotoxicity [14] = tested on: Hepatotoxicity; remark: listed apart in the source

| SMILES | HepSE_bilirubinemia (Hepatotoxicity [1]) | HepSE_cholecystitis (Hepatotoxicity [2]) | HepSE_cholelithiasis (Hepatotoxicity [3]) | HepSE_cirrhosis (Hepatotoxicity [4]) | HepSE_elevated liver function tests (Hepatotoxicity [5]) | HepSE_hepatic failure (Hepatotoxicity [6]) | HepSE_hepatic necrosis (Hepatotoxicity [7]) | HepSE_hepatitis (Hepatotoxicity [8]) | HepSE_hepatomegaly (Hepatotoxicity [9]) | HepSE_jaundice (Hepatotoxicity [10]) | HepSE_liver disease (Hepatotoxicity [11]) | HepSE_liver fatty (Hepatotoxicity [12]) | HepSE_liver function tests abnormal (Hepatotoxicity [13]) | HepSE_Combined Scores (Hepatotoxicity [14]) | also measured |
| --- | --- | --- | --- | --- | --- | --- | --- | --- | --- | --- | --- | --- | --- | --- | --- |
| O=C(O)CCNC(=O)c1ccc(/N=N/c2ccc(O)c(C(=O)O)c2)cc1 [BALSALAZIDE] | 0 | 0 | 0 | 1 | 1 | 1 | 1 | 0 | 0 | 1 | 0 | 0 | 0 | 5 | – |
| C[C@H]1C[C@H]2[C@@H]3CCC4=CC(=O)C=C[C@]4(C)[C@@]3(Cl)[C@@H](O)C[C@]2(C)[C@@]1(O)C(=O)CO [BECLOMETHASONE] | 0 | 0 | 0 | 0 | 0 | 0 | 0 | 0 | 0 | 0 | 0 | 0 | 0 | 0 | – |
| CCOC(=O)[C@H](CCc1ccccc1)N[C@H]1CCc2ccccc2N(CC(=O)O)C1=O [BENAZEPRIL] | 0 | 0 | 0 | 0 | 0 | 0 | 0 | 1 | 0 | 1 | 0 | 0 | 0 | 2 | – |
| NS(=O)(=O)c1cc2c(cc1C(F)(F)F)NC(Cc1ccccc1)NS2(=O)=O (configuration not stated) [BENDROFLUMETHIAZIDE] | 0 | 0 | 0 | 0 | 0 | 0 | 0 | 1 | 0 | 1 | 0 | 0 | 0 | 2 | – |
| O=C(OOC(=O)c1ccccc1)c1ccccc1 [BENZOYL PEROXIDE] | 0 | 0 | 0 | 0 | 0 | 0 | 0 | 0 | 0 | 0 | 0 | 0 | 0 | 0 | – |
| CN1[C@@H]2CC[C@H]1C[C@@H](OC(c1ccccc1)c1ccccc1)C2 [BENZTROPINE] | 0 | 0 | 0 | 0 | 0 | 0 | 0 | 0 | 0 | 0 | 0 | 0 | 0 | 0 | – |
| CN(C)CCCOc1nn(Cc2ccccc2)c2ccccc12 [BENZYDAMINE] | 0 | 0 | 0 | 0 | 0 | 0 | 0 | 0 | 0 | 0 | 0 | 0 | 0 | 0 | – |
| CNCCc1ccccn1 [BETAHISTINE] | 0 | 0 | 0 | 0 | 0 | 0 | 0 | 0 | 0 | 0 | 0 | 0 | 0 | 0 | – |
| C[N+](C)(C)CC(=O)O [BETAINE] | 0 | 0 | 0 | 0 | 0 | 0 | 0 | 0 | 0 | 0 | 0 | 0 | 0 | 0 | – |
| CC(C)NCC(O)COc1ccc(CCOCC2CC2)cc1 (configuration not stated) [BETAXOLOL] | – | – | – | – | – | – | – | – | – | – | – | – | – | – | HepSE_bilirubinemia (Hepatotoxicity [1]; Liver): 0; HepSE_cholecystitis (Hepatotoxicity [2]; Liver): 0; HepSE_cholelithiasis (Hepatotoxicity [3]; Liver): 0; HepSE_cirrhosis (Hepatotoxicity [4]; Liver): 0; HepSE_elevated liver function tests (Hepatotoxicity [5]; Liver): 0; HepSE_hepatic failure (Hepatotoxicity [6]; Liver): 0; HepSE_hepatic necrosis (Hepatotoxicity [7]; Liver): 0; HepSE_hepatitis (Hepatotoxicity [8]; Liver): 0; HepSE_hepatomegaly (Hepatotoxicity [9]; Liver): 0; HepSE_jaundice (Hepatotoxicity [10]; Liver): 0; HepSE_liver disease (Hepatotoxicity [11]; Liver): 0; HepSE_liver fatty (Hepatotoxicity [12]; Liver): 0; HepSE_liver function tests abnormal (Hepatotoxicity [13]; Liver): 0; HepSE_Combined Scores (Hepatotoxicity [14]; Liver): 0 |
| CC(C[N+](C)(C)C)OC(N)=O (configuration not stated) [BETHANECHOL] | – | – | – | – | – | – | – | – | – | – | – | – | – | – | HepSE_bilirubinemia (Hepatotoxicity [1]; Liver): 0; HepSE_cholecystitis (Hepatotoxicity [2]; Liver): 0; HepSE_cholelithiasis (Hepatotoxicity [3]; Liver): 0; HepSE_cirrhosis (Hepatotoxicity [4]; Liver): 0; HepSE_elevated liver function tests (Hepatotoxicity [5]; Liver): 0; HepSE_hepatic failure (Hepatotoxicity [6]; Liver): 0; HepSE_hepatic necrosis (Hepatotoxicity [7]; Liver): 0; HepSE_hepatitis (Hepatotoxicity [8]; Liver): 0; HepSE_hepatomegaly (Hepatotoxicity [9]; Liver): 0; HepSE_jaundice (Hepatotoxicity [10]; Liver): 0; HepSE_liver disease (Hepatotoxicity [11]; Liver): 0; HepSE_liver fatty (Hepatotoxicity [12]; Liver): 0; HepSE_liver function tests abnormal (Hepatotoxicity [13]; Liver): 0; HepSE_Combined Scores (Hepatotoxicity [14]; Liver): 0 |
| C=C(c1ccc(C(=O)O)cc1)c1cc2c(cc1C)C(C)(C)CCC2(C)C [BEXAROTENE] | 1 | 0 | 0 | 0 | 0 | 1 | 0 | 0 | 0 | 0 | 0 | 0 | 0 | 2 | – |
| CC(C)(Oc1ccc(CCNC(=O)c2ccc(Cl)cc2)cc1)C(=O)O [BEZAFIBRATE] | 0 | 0 | 1 | 0 | 0 | 0 | 0 | 0 | 0 | 0 | 0 | 0 | 0 | 1 | – |
| CC(O)(CS(=O)(=O)c1ccc(F)cc1)C(=O)Nc1ccc(C#N)c(C(F)(F)F)c1 (configuration not stated) [BICALUTAMIDE] | 0 | 0 | 0 | 0 | 0 | 1 | 0 | 0 | 0 | 1 | 0 | 0 | 1 | 3 | – |
| O=C(O)O [BICARBONATE] | – | – | – | – | – | – | – | – | – | – | – | – | – | – | HepSE_bilirubinemia (Hepatotoxicity [1]; Liver): 0; HepSE_cholecystitis (Hepatotoxicity [2]; Liver): 0; HepSE_cholelithiasis (Hepatotoxicity [3]; Liver): 0; HepSE_cirrhosis (Hepatotoxicity [4]; Liver): 0; HepSE_elevated liver function tests (Hepatotoxicity [5]; Liver): 0; HepSE_hepatic failure (Hepatotoxicity [6]; Liver): 0; HepSE_hepatic necrosis (Hepatotoxicity [7]; Liver): 0; HepSE_hepatitis (Hepatotoxicity [8]; Liver): 0; HepSE_hepatomegaly (Hepatotoxicity [9]; Liver): 0; HepSE_jaundice (Hepatotoxicity [10]; Liver): 0; HepSE_liver disease (Hepatotoxicity [11]; Liver): 0; HepSE_liver fatty (Hepatotoxicity [12]; Liver): 0; HepSE_liver function tests abnormal (Hepatotoxicity [13]; Liver): 0; HepSE_Combined Scores (Hepatotoxicity [14]; Liver): 0 |
| CCNC(=O)CCC/C=C\C[C@@H]1[C@@H](/C=C/[C@@H](O)CCc2ccccc2)[C@H](O)C[C@@H]1O [BIMATOPROST] | 0 | 0 | 0 | 0 | 0 | 0 | 0 | 0 | 0 | 0 | 0 | 0 | 1 | 1 | – |
| OC(CCN1CCCCC1)(c1ccccc1)C1CC2C=CC1C2 (configuration not stated) [BIPERIDEN] | 0 | 0 | 0 | 0 | 0 | 0 | 0 | 0 | 0 | 0 | 0 | 0 | 0 | 0 | – |
| CC(C)NCC(O)COc1ccc(COCCOC(C)C)cc1 (configuration not stated) [BISOPROLOL] | 0 | 0 | 0 | 0 | 0 | 0 | 0 | 0 | 0 | 0 | 0 | 0 | 0 | 0 | – |
